Where a SMILES comes first, the peptide text is derived from it. The star is where a group is joined. Cbz = O=C(OCc1ccccc1)*
Assays:
β-catenin [1] = assay type: cell-based, human; conditions: 293 cells; CKI-7 100 μM for 16 hr; H89 data not shown
Description: (§1) 293T cells were transiently transfected using the calcium phosphate procedure. The following expression vectors were used: Myc- or Flag-tagged β-catenin (0.5 μg) (a human β-catenin clone obtained from R. Grosschedl), Flag- or Myc-tagged axin (2 μg) (mouse cDNA provided by F. Costantini), HA-GSK3β or Flag-GSK3β (3.5 μg) (a rabbit clone obtained from J R Woodgett) [Woodgett, J. R. (1990) EMBO J 9: 2431-2438]. β-catenin mutants include DP, (S33, S37, T40, S45, S47 substituted to alanine) single point mutants (S29F, S33Y, S37A, T41A, S45F) and 45PKA (T41S, T42R, A43R). Additional vectors: Flag-WD, a dominant negative β-TrCP fragment (ΔF-box) [Yaron, A. et al. (1998) Nature 396: 590-594]; Flag-Dvl-1 (a mouse cDNA clone obtained from S-I Yanagawa) [Lee, J. S. et al. (1999) J Biol Chem 274: 21464-21470]; WT and dominant negative Xenopus CKIε (XCKIε-D128N) (provided by T. Shcwarz-Romond) [McKay, R. M. et al. (2001) Dev Biol 235: 378-387]. 24-48 hr after transfection, cells were harvested and processed for the various experiments. MG-132 (Sigma) was used at 20 μM for 5 hr; LiCl (40 mM) was added for 6 hr, and CKI-7 (100 μM) for 16 hr prior to harvesting. β-catenin, axin or GSK-30 in cell lysates were detected using anti-Myc (Ab-1, Oncogenes Research Products, 2 μg/ml), anti-Flag (M2, Sigma, 1 μg/ml) and anti-HA (12CA5 ascites fluid; 1:5000) antibodies, respectively. GFP expression was monitored with anti-GFP antibody (JL-8, Clontech, 1 μg/ml). In some experiments (FIG. 4) GSK-3β was detected using anti-GSK-3β monoclonal antibodies (clone 7, Transduction Laboratories, 0.1 μg/ml). Endogenous and exogenous β-catenin (FIGS. 5d and 6a) were detected with anti-β-catenin antibodies (clone 14, Transduction Laboratories) (0.25 μg/ml).
Western blot and mass spectrometry (MS). Three different commercial anti-β-catenin phospho-peptide antibodies were used: i) Anti-phospho-Thr41/Ser 45 (Cell Signaling Technology), a polyclonal antibody specific for both pT41 and pS45 (otp41,45). ii) Anti-phospho-Ser33/37/Thr41 (Cell Signaling Technology), a polyclonal antibody recognizing pS33 (αp33). These two polyclonal antibodies were used at a 1:1000 dilution, according to the manufacturer's instructions. iii) anti-phospho-Ser 33/37 (BC-22, Sigma), a monoclonal antibody specific for pS37 (used as ascites fluid at a 1:3000 dilution; αp37). Antibody specificities were determined by phosphopeptide inhibition studies. D^32S(PO4)GIHSGATTTAPS^45 abolished the αp33, but not the αp37 signal; D^32SGIHS(PO4)GATTTAPS^45 blocked the αp37 but not the αp33 signal. […] Proteins for MS analysis were immunopurified by M2 Flag-affinity beads (Sigma), separated by SDS-PAGE, Coomassie stained and the β-catenin bands were in-gel digested with endoproteinase Asp-N. The resulting peptides were desalted on small columns, eluted with 20% MeOH, 5% HCOOH, and analyzed by nanoelectrospray mass spectrometry [Yaron et al. (1998) id ibid.], using a quadrupole time-of-flight mass spectrometer (PE-Sciex, Canada).
GSK-3β is traditionally known to target the phosphorylation of +4P-primed substrates [Frame, S. et al. (2001) Mol Cell 7: 1321-1327], a specificity supported by recent structural studies of the enzyme [Dajani, R. et al (2001) Cell 105: 721-732]. The fact that the S45 phosphorylation site is not preceded by a +4P priming site led to the proposition that the molecular complex of axin and GSK-3β is capable of bypassing the priming requirement of the uncomplexed enzyme [Cohen and Frame (2001) id ibid.]. To assess the contribution of GSK-30 in axin-mediated S45 phosphorylation, two types of experiments were carried out. In the first set, 293 cells were incubated prior to harvesting with LiCl, a GSK-3β inhibitor capable of mimicking a Wnt effect [Klein, P. S. and D. A. Melton (1996) Proc Natl Acad Sci USA 93: 8455-8459; Stambolic, V. et al. (1996) Curr Biol 6: 1664-1668].

endogenous β-catenin = experiment: Phosphorylation of endogenous β-catenin in proteasome-inhibited HeLa cells with kinase inhibitors; assay type: cell-based; conditions: H89 5 μM
Description: FIG. 5d: Effects of specific kinase inhibitors on the phosphorylation of endogenous β-catenin at S41,45 and S33 in HeLa cells. CKI-7 was used at 100 μM, H89 at 5 μM and LiCl at 40 mM. β-catenin was detected with anti-β-catenin antibody, or anti-phospho-p-catenin antibodies.
as §1
Western blot and mass spectrometry (MS). Three different commercial anti-β-catenin phospho-peptide antibodies were used: i) Anti-phospho-Thr41/Ser 45 (Cell Signaling Technology), a polyclonal antibody specific for both pT41 and pS45 (otp41,45). ii) Anti-phospho-Ser33/37/Thr41 (Cell Signaling Technology), a polyclonal antibody recognizing pS33 (αp33). […] Antibody specificities were determined by phosphopeptide inhibition studies. […]
In another set of experiments the in vivo role of CKI in S45 phosphorylation was analyzed, using two dominant negative CKIε constructs (dnXCKIε K85R and D128N) [McKay et al. (2001) id ibid.] and a specific CKI inhibitor (CKI-7) [Chijiwa, T. et al. (1989) J Biol Chem 264: 4924-4927]. […]

β-catenin [2] = experiment: Okadaic acid treatment of HeLa, SW480 and SNU449 cells, Western blot with anti-phospho β-catenin antibodies; assay type: cell-based
Description: FIG. 7a: HeLa cells were incubated with MG132 with or without okadaic acid (1 μM for 3 hr). Cell lysates were analyzed by Western blotting with αp45 and αp33.
FIG. 7b: SNU449 cells [Satoh et al. (2000) id ibid.] were treated with okadaic acid (1 μM for 1 or 3 hr), and their lysates tested for S45 phosphorylation by Western blotting,
FIG. 7c: Okadaic Acid induces β-Catenin phosphorylation and degradation in the APC mutated cell line SW480.
Okadaic acid is a selective inhibitor of phosphatase PP2A, while it inhibits to a lower extent (10-50 fold less) phosphatase PP1. Proteasome-inhibited HeLa and SW480 cells (treated with 20 μM MG132) or Ser 37-mutated SNU 449 […] cells [Satoh et al. (2000) id ibid.] were treated with okadaic acid (1 μM) for 1 or 3 hr, harvested and their lysate analyzed by Western blot with anti-phospho β-catenin antibodies: anti-pSer45 and anti-pSer33 (for HeLa and RKO cells only). […] Yet, since S45 phosphorylation precedes the S33 phosphorylation, the okadaic effect may be reserved to S45. This is an example of a compound that can upregulate S45 phosphorylation, while Wnt3A downregulates the same phosphorylation event (FIG. 6a).

phosphatase PP1 = conditions: selective inhibitor of phosphatase PP2A; cited from earlier work
β-catenin [3] = experiment: β-catenin degradation in the 293 axin/GSK-3β expression system (Western blot); assay type: cell-based, human; conditions: 293 cells, axin and GSK-3β overexpression, Myc-β-catenin; MG-132 20 μM for 5 hr
Description: as §1, with “T42R, A43R). […] MG-132 (Sigma)” for “T42R, A43R). Additional vectors: Flag-WD, a dominant negative β-TrCP fragment (ΔF-box) [Yaron, A. et al. (1998) Nature 396: 590-594]; Flag-Dvl-1 (a mouse cDNA clone obtained from S-I Yanagawa) [Lee, J. S. et al. (1999) J Biol Chem 274: 21464-21470]; WT and dominant negative Xenopus CKIε (XCKIε-D128N) (provided by T. Shcwarz-Romond) [McKay, R. M. et al. (2001) Dev Biol 235: 378-387]. 24-48 hr after transfection, cells were harvested and processed for the various experiments. MG-132 (Sigma)”, “(0.25 μg/ml). […]” for “(0.25 μg/ml).”

β-catenin [4] = experiment: Wnt3A conditioned medium stimulation of L, SNU449, HeLa and Jurkat cells, β-catenin level and phosphorylation by Western blot; assay type: cell-based
Description: FIG. 6a: Wnt3A inhibits S45 phosphorylation. Mouse L cells, SNU449 hepatoma cells [Satoh et al. (2000) Nat Genet 24(3):245-50], HeLa cells and β-catenin transfected Jurkat T cells were incubated (5 hr) with conditioned medium of wt or Wnt3A secreting L cells [Shibamoto et al. (1998) Genes Cells 3: 659-670]. MG-132 or okadaic acid (OKA, 1 μM) were added to the indicated cultures. Endogenous (HeLa, L cells and SNU449) and exogenous (Jurkat) β-catenin was detected with anti-β-catenin antibody, or anti-phospho-β-catenin antibodies. The numbers under the different lanes are relative densitometry figures, referring to the signal intensity of untreated cultures.
The control of β-catenin stability is a major task of the Wnt pathway and is mediated through members of the conserved protein family dishevelled (Dvl 1,2,3) [Boutros and Mlodzik (1999) id ibid.]. […] To this end, several cell lines were first stimulated with Wnt3A [Roelink, H. and R. Nusse. (1991) Genes Dev 5: 381-388; Shibamoto, S. et al. (1998) id ibid.; Lee et al. (1999) id ibid.], and S45 phosphorylation was monitored by Western blot analysis. Wnt stimulation stabilized endogenous β-catenin in mouse L-cells (fibroblasts) (FIG. 6a, lanes 1,2) and exogenous β-catenin in Jurkat lymphocytes (lanes 5,6). […] (lanes 9-11). S45 phosphorylation of β-catenin was evident in proteasome-inhibited L cells (lane 3), Jurkat cells (lane 7) and HeLa cells (lane 14). It was also apparent in okadaic acid-treated SNU449 cells (OKA, lane 10).

Compound: O=S(=O)(NCCNC/C=C/c1ccc(Br)cc1)c1cccc2cnccc12 [H89]
- constitutive S45 phosphorylation of 45PKA β-catenin (β-catenin [1]): inhibited
- wt β-catenin phosphorylation (endogenous β-catenin): no effect

Compound: C=C1[C@@H](O)[C@@H]2O[C@]3(CC[C@H](/C=C/[C@@H](C)[C@@H]4CC(C)=C[C@@]5(O[C@H](C[C@@](C)(O)C(=O)O)CC[C@H]5O)O4)O3)CC[C@H]2O[C@@H]1[C@@H](O)C[C@H](C)[C@H]1O[C@@]2(CCCCO2)CC[C@H]1C [okadaic acid]
- β-Catenin phosphorylation and degradation (β-catenin [2]; APC mutated cell line SW480): induces
- phosphorylation signal with anti-pSer45 (β-catenin [2]; MG132-treated HeLa and SW480 cells or SNU 449 cells, okadaic acid 1 μM for 1 or 3 hr): induces a massive phosphorylation signal
- S45 phosphorylation of β-catenin (β-catenin [2]; SNU449 cells, okadaic acid 1 μM): apparent
- phosphorylation signal with anti-pSer33 (β-catenin [2]; okadaic acid 1 μM for 1 or 3 hr, for HeLa and RKO cells only (so in the source)): induces a massive phosphorylation signal
- inhibition of phosphatase PP1 relative to PP2A (phosphatase PP1): 10-50 fold less

Compound: CC(C)C[C@@H](C=O)NC(=O)[C@H](CC(C)C)NC(=O)[C@H](CC(C)C)NC(=O)OCc1ccccc1 [MG-132] (Cbz-Leu-Leu-Leu-aldehyde)
- β-catenin degradation (β-catenin [3]): blocked

Compound: Wnt3A
- S33/37 phosphorylation (β-catenin [4]; Jurkat, HeLa and L cells): inhibition
- levels of S37 mutated β-catenin (β-catenin [4]; SNU449 hepatoma cell line, conditioned medium 5 hr): did not affect
- S45 phosphorylation (β-catenin [4]; all four cell lines (L, Jurkat, SNU449, HeLa), MG-132 or okadaic acid treated): inhibition
- β-catenin level (stabilization) (β-catenin [4]; endogenous β-catenin in mouse L-cells, exogenous β-catenin in Jurkat lymphocytes, conditioned medium 5 hr): stabilized

Reference: patent US20050171005A1, “Methods and compositions for modulating beta-catenin phosphorylation” (priority 2002, published 2005)
